Here are results for 23 molecules from patent US7473700B2, “1,2,4-triazole derivatives, processes for the preparation thereof, and pharmaceutical compositions containing the same” (CJ Corporation, priority 2002, dated 2009).

Assay [1] deals with T1, COX-2 (Mus musculus, UniProt Q05769).
T1 construct: host or cells: RAW 264.7 cells, aspirin-pretreated, then induced with interferon gamma and LPS
T1 sequence (Q05769 18-604): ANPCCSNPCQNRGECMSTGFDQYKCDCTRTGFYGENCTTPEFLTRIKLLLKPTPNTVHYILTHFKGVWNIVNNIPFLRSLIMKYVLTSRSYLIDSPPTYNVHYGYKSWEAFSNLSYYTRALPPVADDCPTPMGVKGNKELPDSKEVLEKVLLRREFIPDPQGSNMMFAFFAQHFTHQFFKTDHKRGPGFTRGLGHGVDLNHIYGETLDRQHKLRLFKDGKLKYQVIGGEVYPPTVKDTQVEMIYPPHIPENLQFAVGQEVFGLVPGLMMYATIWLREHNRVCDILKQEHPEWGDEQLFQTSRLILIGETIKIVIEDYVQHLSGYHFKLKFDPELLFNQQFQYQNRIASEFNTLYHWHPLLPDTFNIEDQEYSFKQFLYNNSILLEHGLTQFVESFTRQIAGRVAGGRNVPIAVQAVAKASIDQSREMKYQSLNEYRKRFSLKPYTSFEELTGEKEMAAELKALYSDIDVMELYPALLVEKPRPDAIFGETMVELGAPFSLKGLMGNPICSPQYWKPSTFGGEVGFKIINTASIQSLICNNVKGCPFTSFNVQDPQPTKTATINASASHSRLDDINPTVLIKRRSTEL
The experiment in a line: Assay for the COX-2 inhibitory activity using RAW 264.7 cell line (PGE2 inhibition). Format: cell-based. The conditions noted are these: RAW264.7, 10 nM test compound, RAW 264.7 cells, interferon γ and LPS, 18 hours, read-out: Cyclooxygenase (COX) Inhibition (%) COX-2 (10 nM). As to the method:
Each well was treated with 250 μM of aspirin and incubated at 37° C. for 2 hours. After the culture media were replaced with new culture media, the new culture media were treated with a test compound (10 nM) and incubated for 30 minutes. Then, each well was treated with interferon γ (100 units/ml) and lipopolysaccharide (LPS, 100 ng/ml) and incubated for 18 hours. The culture media were transferred to other test tubes. The concentration of PGE2 was quantified by means of the EIA kit (Cayman Chemicals).
(§1) The percentages of the COX inhibition were calculated according to the following equation: % Inhibition=(concentration of PGE2 in test compound-untreated sample−concentration of PGE2 in test compound-treated sample)/(concentration of PGE2 in test compound-untreated sample)×100

Assay [2] has as its target T2, COX-1 (Homo sapiens, UniProt P23219).
T2 construct: host or cells: U-937 human lymphoma cells
The experiment in a line: Assay for the COX-1 inhibitory activity using U-937 (PGE2 inhibition). Format: cell-based. The conditions noted are these: 1 μM test compound; U-937 human lymphoma cells; PGE2 after arachidonic acid; read-out: Cyclooxygenase (COX) Inhibition (%) COX-1 (1 μM). As to the method: The collected cells were diluted with HBSS (×1, Hank's balanced salt solution) to a concentration of 1×10^6 cells/ml. 1 ml of the dilute cell solution was placed into each well of 12-well plates. 5 μl of 1 μM solution of a test compound in DMSO and 5 μl of DMSO as a control were added to the wells. The wells were incubated in CO2 incubator at 37° C. for 15 minutes. Separately, 10 mM stock solution of arachidonic acid in ethanol was diluted ten times in ethanol to prepare 1 mM solution of arachidonic acid. Arachidonic acid acts as a substrate. 10 μl of the 1 mM solution of arachidonic acid was added to each well and incubated at CO2 incubator at 37° C. for 30 minutes. The cell solution of each well was placed in a centrifuge test tube and centrifuged at 10,000 rpm at 4° C. for 5 minutes. The concentration of PGE2 in the collected cells and the supernatant was quantified by means of a monoclonal kit (Cayman Chemicals). The percentages of PGE2 inhibition in a group of the test compound-treated cells in relation to a group of the DMSO-treated cells were calculated. Based on the calculated values, the COX-1 inhibitory activities were evaluated.
as §1

T2 sequence (P23219 24-599): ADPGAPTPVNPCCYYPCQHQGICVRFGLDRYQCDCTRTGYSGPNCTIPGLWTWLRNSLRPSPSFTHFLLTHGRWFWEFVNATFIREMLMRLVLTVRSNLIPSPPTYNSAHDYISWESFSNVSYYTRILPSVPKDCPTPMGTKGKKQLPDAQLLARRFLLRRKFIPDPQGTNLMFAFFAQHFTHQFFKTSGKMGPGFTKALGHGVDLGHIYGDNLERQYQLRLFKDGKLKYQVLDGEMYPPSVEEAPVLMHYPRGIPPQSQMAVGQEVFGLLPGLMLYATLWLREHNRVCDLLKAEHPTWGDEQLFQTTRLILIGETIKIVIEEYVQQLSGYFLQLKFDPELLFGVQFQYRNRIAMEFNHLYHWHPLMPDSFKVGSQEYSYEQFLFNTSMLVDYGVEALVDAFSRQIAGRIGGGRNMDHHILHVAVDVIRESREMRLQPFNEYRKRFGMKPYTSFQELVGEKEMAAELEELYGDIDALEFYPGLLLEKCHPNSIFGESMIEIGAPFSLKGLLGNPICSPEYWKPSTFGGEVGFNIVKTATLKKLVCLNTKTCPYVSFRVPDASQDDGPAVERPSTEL

As to `CCOc1nc(-c2ccc(OC)cc2)n(-c2ccc(S(N)(=O)=O)cc2)n1` [Example 30, 4-[3-ethoxy-5-(4-methoxyphenyl)-1,2,4-triazole-1-yl]-benzenesulfonamide], the inhibition at 0.01 µM in assay [1] amounted to 13.2%. In addition, the inhibition at 1 µM in assay [2] is 16.4%.
For `COc1ccc(-c2nc(OC)nn2-c2ccc(S(N)(=O)=O)cc2)cc1` [Example 24, 4-[3-methoxy-5-(4-methoxyphenyl)-1,2,4-triazole-1-yl]-benzenesulfonamide], the inhibition at 0.01 µM in assay [1] is 31.2%. For the same molecule, the inhibition at 1 µM in assay [2] was 16.4%.
With `NS(=O)(=O)c1ccc(-n2nc(O)nc2-c2ccc(F)cc2)cc1` [Example 18, 4-[3-hydroxy-5-(4-fluorophenyl)-1,2,4-triazole-1-yl]-benzenesulfonamide], in assay [1], the inhibition at 0.01 µM is 6.7%. Further, the inhibition at 1 µM in assay [2] is 19.5%.
On the same counts, the results for `CCOc1ccc(-c2nc(O)nn2-c2ccc(S(N)(=O)=O)cc2)cc1` [Example 17, 4-[3-hydroxy-5-(4-ethoxyphenyl)-1,2,4-triazole-1-yl]-benzenesulfonamide] are 10.5% and 48.8%.
On the same counts, the results for `CS(=O)(=O)c1ccc(-n2nc(O)nc2-c2ccccc2)cc1` [Example 22, 1-(4-methanesulfonylphenyl)-5-phenyl-1H-1,2,4-triazole-3-ol] are 36.4% and 11.1%.
Turning to `COc1nc(-c2ccccc2)n(-c2ccc(S(C)(=O)=O)cc2)n1` [Example 60, 1-(4-methanesulfonylphenyl)-3-methoxy-5-phenyl-1H-1,2,4-triazole], in assay [1], the inhibition at 0.01 µM is 23.4%. In addition, in assay [2], the inhibition at 1 µM worked out at 23.4%.
`NS(=O)(=O)c1ccc(-n2nc(OC3CCCC3)nc2-c2ccc(F)cc2)cc1` [Example 38, 4-[3-cyclopentyloxy-5-(4-fluorophenyl)-1,2,4-triazole-1-yl]-benzenesulfonamide]: the inhibition at 0.01 µM in assay [1] came out at 33.1%. In addition, the inhibition at 1 µM in assay [2] is 17.4%.
`C#CCOc1nc(-c2ccc(F)cc2)n(-c2ccc(S(N)(=O)=O)cc2)n1` [Example 44, 4-[3-prop-2-ynyloxy-5-(4-fluorophenyl)-1,2,4-triazole-1-yl]-benzenesulfonamide]: in assay [1], the inhibition at 0.01 µM came to 14.5%. In assay [2], the inhibition at 1 µM turned out to be 27.2%.
On the same counts, the results for `CC(C)Oc1nc(-c2ccc(F)cc2)n(-c2ccc(S(N)(=O)=O)cc2)n1` [Example 48, 4-[3-isopropoxy-5-(4-fluorophenyl)-1,2,4-triazole-1-yl]-benzenesulfonamide] are 9.8% and 26.4%.
With `NS(=O)(=O)c1ccc(-n2nc(OCC(F)(F)F)nc2-c2ccc(F)cc2)cc1` [Example 56, 4-[3-(2,2,2-trifluoroethoxy)-5-(4-fluorophenyl)-1,2,4-triazole-1-yl]-benzenesulfonamide], the inhibition at 0.01 µM in assay [1] stood at 27.7%. In addition, the inhibition at 1 µM in assay [2] amounted to 37.2%.
On the same counts, the results for `COc1ccc(-c2nc(O)nn2-c2ccc(S(N)(=O)=O)cc2)cc1` [Example 16, 4-[3-hydroxy-5-(4-methoxyphenyl)-1,2,4-triazole-1-yl]-benzenesulfonamide] are 11.2% and 35.5%.
On the same counts, the results for `CCOc1nc(-c2ccccc2)n(-c2ccc(S(C)(=O)=O)cc2)n1` [Example 62, 1-(4-methanesulfonylphenyl)-3-ethoxy-5-phenyl-1H-1,2,4-triazole] are 25.4% and 26%.
On the same counts, the results for `COc1nc(-c2ccc(OC)c(F)c2)n(-c2ccc(S(N)(=O)=O)cc2)n1` [Example 28, 4-[3-methoxy-5-(3-fluoro-4-methoxyphenyl)-1,2,4-triazole-1-yl]-benzenesulfonamide] are 10.5% and 21.2%.
On to `CCOc1nc(-c2ccccc2)n(-c2ccc(S(N)(=O)=O)cc2)n1` [Example 31, 4-(3-ethoxy-5-phenyl-1,2,4-triazole-1-yl)-benzenesulfonamide], for which, in assay [1], the inhibition at 0.01 µM came out at 16.4%. The inhibition at 1 µM in assay [2] is 15.5%.
On the same counts, the results for `CSc1nc(-c2ccccc2)n(-c2ccc(S(N)(=O)=O)cc2)n1` [Example 29, 4-(3-methylthio-5-phenyl-1,2,4-triazole-1-yl)-benzenesulfonamide] are 11.1% and 17.7%.
On the same counts, the results for `COc1nc(-c2ccc(Br)cc2)n(-c2ccc(S(N)(=O)=O)cc2)n1` [Example 27, 4-[3-methoxy-5-(4-bromophenyl)-1,2,4-triazole-1-yl]-benzenesulfonamide] are 11.5% and 11.2%.
Consider `COc1ccc(-c2nc(OC(C)C)nn2-c2ccc(S(N)(=O)=O)cc2)cc1` [Example 46, 4-[3-isopropoxy-5-(4-methoxyphenyl)-1,2,4-triazole-1-yl]-benzenesulfonamide], for which the inhibition at 0.01 µM in assay [1] amounted to 12.2%. Further, the inhibition at 1 µM in assay [2] is 34.2%.
In the case of `CCOc1nc(-c2ccc(OC)c(F)c2)n(-c2ccc(S(N)(=O)=O)cc2)n1` [Example 33, 4-[3-ethoxy-5-(3-fluoro-4-methoxyphenyl)-1,2,4-triazole-1-yl]-benzenesulfonamide], the inhibition at 0.01 µM in assay [1] worked out at 10.5%. Also, in assay [2], the inhibition at 1 µM was found to be 23.7%.
On the same counts, the results for `CC(C)Oc1nc(-c2ccccc2)n(-c2ccc(S(C)(=O)=O)cc2)n1` [Example 64, 1-(4-methanesulfonylphenyl)-3-isopropoxy-5-phenyl-1H-1,2,4-triazole] are 33.1% and 23.4%.
Regarding `CCSc1nc(-c2ccccc2)n(-c2ccc(S(N)(=O)=O)cc2)n1` [Example 34, 4-(3-ethylthio-5-phenyl-1,2,4-triazole-1-yl)-benzenesulfonamide], the inhibition at 0.01 µM in assay [1] amounted to 9.5%. Moreover, the inhibition at 1 µM in assay [2] amounted to 31.2%.
On the same counts, the results for `NS(=O)(=O)c1ccc(-n2nc(OC3CCCCC3)nc2-c2ccc(F)cc2)cc1` [Example 40, 4-[3-cyclohexyloxy-5-(4-fluorophenyl)-1,2,4-triazole-1-yl]-benzenesulfonamide] are 16.2% and 16.2%.
`COc1ccc(-c2nc(OCc3ccccc3)nn2-c2ccc(S(N)(=O)=O)cc2)cc1F` [Example 50, 4-[3-benzyloxy-5-(3-fluoro-4-methoxyphenyl)-1,2,4-triazole-1-yl]-benzenesulfonamide]: in assay [1], the inhibition at 0.01 µM came to 16.1%. For the same molecule, the inhibition at 1 µM in assay [2] was found to be 28%.
With `COc1ccc(-c2nc(O)nn2-c2ccc(S(N)(=O)=O)cc2)cc1F` [Example 20, 4-[3-hydroxy-5-(3-fluoro-4-methoxyphenyl)-1,2,4-triazole-1-yl]-benzenesulfonamide], the inhibition at 0.01 µM in assay [1] came to 11%. For the same molecule, the inhibition at 1 µM in assay [2] is 26.4%.

Usually inhibition stands for the drop in the measured response relative to a control, in per cent.
